Measurements: patent US20240132525A1, “BORON […], CO[…], METHODS AND USES THEREOF” (priority 2022, published 2024)
Where two headings read alike, the source gives them in different places.

Assays:
JAK1 = JAK1 (Homo sapiens (Human), UniProt P23458); assay: Biochemical kinase assay (33P-ATP filter-binding), JAK1
Text: (§1) Biochemical Kinase Assay Protocol (JAK)
(§2) Reaction Procedure: • 1. […] Detected kinase activity by filter-binding method.

JAK2 = JAK2 (Homo sapiens (Human), UniProt O60674); assay: Biochemical kinase assay (33P-ATP filter-binding), JAK2
Chain of JAK2 (O60674 whole entry, species assumed): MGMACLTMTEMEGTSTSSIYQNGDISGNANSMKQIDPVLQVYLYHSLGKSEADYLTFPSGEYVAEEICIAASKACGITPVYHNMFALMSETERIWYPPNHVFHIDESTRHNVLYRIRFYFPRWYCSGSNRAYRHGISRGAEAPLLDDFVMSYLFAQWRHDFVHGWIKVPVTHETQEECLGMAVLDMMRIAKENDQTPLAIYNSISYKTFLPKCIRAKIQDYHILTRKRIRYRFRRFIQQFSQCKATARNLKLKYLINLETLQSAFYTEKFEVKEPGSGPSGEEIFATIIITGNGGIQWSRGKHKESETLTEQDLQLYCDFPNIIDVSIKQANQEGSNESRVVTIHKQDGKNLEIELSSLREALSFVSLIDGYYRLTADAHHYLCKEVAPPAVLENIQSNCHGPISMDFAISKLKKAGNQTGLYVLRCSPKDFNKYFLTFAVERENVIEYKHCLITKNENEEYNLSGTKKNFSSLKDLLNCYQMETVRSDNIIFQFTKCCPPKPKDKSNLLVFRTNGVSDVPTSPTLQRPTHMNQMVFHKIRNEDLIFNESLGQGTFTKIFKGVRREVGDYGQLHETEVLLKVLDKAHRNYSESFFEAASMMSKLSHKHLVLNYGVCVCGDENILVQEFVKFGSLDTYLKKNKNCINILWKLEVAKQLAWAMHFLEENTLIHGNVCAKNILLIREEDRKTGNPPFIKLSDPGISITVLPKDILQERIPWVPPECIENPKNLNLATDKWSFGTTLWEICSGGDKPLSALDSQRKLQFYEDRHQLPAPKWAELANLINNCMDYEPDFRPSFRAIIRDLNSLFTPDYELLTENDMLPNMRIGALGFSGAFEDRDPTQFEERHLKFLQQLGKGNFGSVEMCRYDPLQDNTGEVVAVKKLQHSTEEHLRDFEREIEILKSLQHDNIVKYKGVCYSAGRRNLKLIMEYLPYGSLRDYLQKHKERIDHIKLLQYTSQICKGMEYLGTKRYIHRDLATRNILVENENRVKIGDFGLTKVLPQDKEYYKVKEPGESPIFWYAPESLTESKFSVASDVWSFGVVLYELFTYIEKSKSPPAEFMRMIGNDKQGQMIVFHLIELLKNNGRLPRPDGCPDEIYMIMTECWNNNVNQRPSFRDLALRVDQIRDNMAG
Text: as §1, §2

IL-4/pSTAT6 = assay: Cytokine function assay IL-4/pSTAT6 in PBMC; assay type: cell-based
Procedure: Cytokine Function Assay Protocols for IL-4/pSTAT6 and GM-CSF/pSTAT5
IL-4/pSTAT6: • PBMC from a healthy donor was plated onto a 96 w plate. Compound was added and incubated for 1 hour (at 37° C.). After 1 hour, cells were stimulated with IL-4 for 15 minutes. Cells were fixed and stained with anti-pSTAT6 antibody. After staining, cells were read on a Beckman-Coulter CytoFLEX.

[1] = Dog LM (liver microsome) assay; assay type: in vitro ADME; conditions: Table 3a; predicted clearance as percent of liver blood flow, 1 μM, 1 mg/ml microsomal protein
Procedure: Dog LM (Liver Microsome) Assay
The metabolic degradation of the test compound is assayed at 37° C. with pooled liver microsomes from dogs (Beagle). The final incubation volume of 100 μl per time point contains TRIS buffer pH 7.6 at RT (0.1 M), magnesium chloride (5 mM), microsomal protein (1 mg/ml) and the test compound at a final concentration of 1 μM. Following a short preincubation period at 37° C., the reactions were initiated by addition of beta-nicotinamide adenine dinucleotide phosphate, reduced form (NADPH, 1 mM) and terminated by transferring an aliquot into solvent after different time points. Additionally, the NADPH-independent degradation was monitored in incubations without NADPH, terminated at the last time point. The [%] remaining test compound after NADPH independent incubation is reflected by the parameter c (control) (metabolic stability). The quenched incubations are pelleted by centrifugation (10000 g, 5 min). An aliquot of the supernatant is assayed by LC-MS/MS for the amount of parent compound. The half-life (t½ INVITRO) is determined by the slope of the semilogarithmic plot of the concentration-time profile. The intrinsic clearance (CL_[…]) is calculated by considering the amount of protein in the incubation: CL_[…] [μl/min/mg protein]=(Ln 2/(half-life [min]*protein content [mg/ml]))*1000. For better across species comparison the predicted clearance is expressed as percent of the liver blood flow [% QH] in the individual species. In general, high stability (corresponding to low % QH) of the compounds across species is desired.

[2] = PBMC, read-out: IC50 IL-4, Table 3a

Chain of JAK1 (P23458 whole entry, species assumed): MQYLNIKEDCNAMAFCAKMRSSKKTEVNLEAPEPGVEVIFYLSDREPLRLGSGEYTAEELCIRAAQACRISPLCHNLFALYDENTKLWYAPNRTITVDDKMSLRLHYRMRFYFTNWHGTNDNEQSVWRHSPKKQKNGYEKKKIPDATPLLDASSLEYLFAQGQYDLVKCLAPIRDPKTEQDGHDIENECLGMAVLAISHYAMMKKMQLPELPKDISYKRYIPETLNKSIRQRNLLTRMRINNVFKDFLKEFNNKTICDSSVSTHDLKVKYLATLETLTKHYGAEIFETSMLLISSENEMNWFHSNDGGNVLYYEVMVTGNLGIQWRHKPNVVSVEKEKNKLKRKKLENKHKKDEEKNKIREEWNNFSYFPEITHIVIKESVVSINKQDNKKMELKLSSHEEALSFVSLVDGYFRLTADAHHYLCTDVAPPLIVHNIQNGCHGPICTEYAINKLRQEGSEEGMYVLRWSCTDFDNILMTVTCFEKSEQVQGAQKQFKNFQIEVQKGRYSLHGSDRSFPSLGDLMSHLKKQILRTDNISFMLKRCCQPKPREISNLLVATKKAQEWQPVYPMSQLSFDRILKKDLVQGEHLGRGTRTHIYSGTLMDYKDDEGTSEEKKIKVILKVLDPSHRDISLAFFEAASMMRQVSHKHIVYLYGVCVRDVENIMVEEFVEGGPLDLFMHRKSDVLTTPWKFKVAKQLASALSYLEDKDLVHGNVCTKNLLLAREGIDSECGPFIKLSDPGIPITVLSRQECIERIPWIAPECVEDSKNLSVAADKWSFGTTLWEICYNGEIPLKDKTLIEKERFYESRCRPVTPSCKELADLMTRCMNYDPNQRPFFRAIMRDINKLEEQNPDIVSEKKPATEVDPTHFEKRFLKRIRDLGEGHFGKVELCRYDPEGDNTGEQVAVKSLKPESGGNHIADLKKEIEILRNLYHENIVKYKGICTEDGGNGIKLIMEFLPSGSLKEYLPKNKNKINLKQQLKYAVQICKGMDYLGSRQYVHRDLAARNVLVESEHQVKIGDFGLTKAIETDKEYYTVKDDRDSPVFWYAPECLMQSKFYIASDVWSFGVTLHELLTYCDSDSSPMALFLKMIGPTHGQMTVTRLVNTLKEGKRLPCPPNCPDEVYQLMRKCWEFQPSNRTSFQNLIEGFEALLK

| SMILES | IC50 (JAK1; Table 3a, read-out: IC50 JAK1) | IC50 (JAK2; Table 3a, read-out: IC50 JAK2) | IC50 (IL-4/pSTAT6; [2]) | Dog LM QH [1] | IC50 (IL-4/pSTAT6; read-out: IC50 IL-4, Table 3a) | IC50 (JAK1; IC50 JAK1, Table 3a) | IC50 (JAK2; IC50 JAK2, Table 3a) |
| --- | --- | --- | --- | --- | --- | --- | --- |
| Cc1cnc(Nc2cc3c(c(C(F)(F)F)c2)B(O)OC3)nc1N[C@@H]1CCC[C@H]1C#N (relative stereo) [Example 006, (trans)2-[[2-[[1-hydroxy-7-(trifluoromethyl)-3H-2,1-benzoxaborol-5-yl]amino]-5-methyl-pyrimidin-4-yl]amino]cyclopentanecarbonitrile] | 1 nM | 36.6 nM | 202 nM | <19.9% |  |  |  |
| Cc1cnc(Nc2ccc3c(c2)OB(O)C=C3)nc1N[C@@H]1COCC[C@H]1C#N (relative stereo) [Example 034, (trans)-3-[[2-[(2-hydroxy-1,2-benzoxaborinin-7-yl)amino]-5-methyl-pyrimidin-4-yl]amino]tetrahydropyran-4-carbonitrile] | 1.1 nM | 33.7 nM |  | 74.7% |  |  |  |
| Cc1cnc(Nc2cc3c(c(C(F)(F)F)c2)OB(O)C=C3)nc1N[C@@H]1COCC[C@H]1C#N (relative stereo) [Example 037, (trans)-3-[[2-[[2-hydroxy-8-(trifluoromethyl)-1,2-benzoxaborinin-6-yl]amino]-5-methyl-pyrimidin-4-yl]amino]tetrahydropyran-4-carbonitrile] | 3.1 nM | 18.5 nM | 919 nM | 19.9% |  |  |  |
| Cc1cnc(Nc2cc(Cl)c3c(c2)COB3O)nc1N[C@@H]1CCC[C@H]1C#N (single isomer, unassigned) [Example 003b, (trans)-2-((2-((7-chloro-1-hydroxy-1,3-dihydrobenzo[c][1,2]oxaborol-5-yl)amino)-5-methylpyrimidin-4-yl)amino)cyclopentane-1-carbonitrile] | 5 nM | 83.1 nM |  | <19.9% | 74.8 nM |  |  |
| Cc1cnc(Nc2cc3c(c(C(F)(F)F)c2)B(O)OC3)nc1N[C@H]1CCCC[C@@H]1C#N (single isomer, unassigned) [Example 011b, (trans)-2-((2-((1-hydroxy-7-(trifluoromethyl)-1,3-dihydrobenzo[c][1,2]oxaborol-5-yl)amino)-5-methylpyrimidin-4-yl)amino)cyclohexane-1-carbonitrile] | 10 nM | 197 nM |  | <19.9% |  |  |  |
| Cc1cnc(Nc2cc(C#N)c3c(c2)COB3O)nc1N[C@H]1CCCC[C@@H]1C#N (single isomer, unassigned) [Example 012a, 5-((4-(((trans)-2-cyanocyclohexyl)amino)-5-methylpyrimidin-2-yl)amino)-1-hydroxy-1,3-dihydrobenzo[c][1,2]oxaborole-7-carbonitrile] | 0.6 nM | 2.4 nM |  | <19.9% |  |  |  |
| Cc1cnc(Nc2cc(C#N)c3c(c2)COB3O)nc1N[C@H]1CCCC[C@@H]1C#N (single isomer, unassigned) [Example 012b, 5-((4-(((trans)-2-cyanocyclohexyl)amino)-5-methylpyrimidin-2-yl)amino)-1-hydroxy-1,3-dihydrobenzo[c][1,2]oxaborole-7-carbonitrile] | 8.2 nM | 126 nM |  | <19.9% |  |  |  |
| Cc1cnc(Nc2ccc3c(c2)COB3O)nc1N[C@@H]1COCC[C@H]1C#N (single isomer, unassigned) [Example 026b, (trans)-3-((2-((1-hydroxy-1,3-dihydrobenzo[c][1,2]oxaborol-5-yl)amino)-5-methylpyrimidin-4-yl)amino)tetrahydro-2H-pyran-4-carbonitrile] | 47.1 nM | 95.3 nM |  | <19.9% |  |  |  |
| Cc1cnc(Nc2cc(F)c3c(c2)COB3O)nc1N[C@@H]1COCC[C@H]1C#N (single isomer, unassigned) [Example 029b, (trans)-3-[[2-[(7-fluoro-1-hydroxy-3H-2,1-benzoxaborol-5-yl)amino]-5-methyl-pyrimidin-4-yl]amino]tetrahydropyran-4-carbonitrile] | 4 nM | 89.8 nM |  | <19.9% |  |  |  |
| Cc1cnc(Nc2cc3c(c(C(F)(F)F)c2)B(O)OC3)nc1N[C@@H]1COCC[C@H]1C#N (single isomer, unassigned) [Example 033b, (trans)-3-[[2-[[1-hydroxy-7-(trifluoromethyl)-3H-2,1-benzoxaborol-5-yl]amino]-5-methyl-pyrimidin-4-yl]amino]tetrahydropyran-4-carbonitrile] | 16.3 nM | 389 nM |  | 64.9% |  |  |  |
| Cc1cnc(Nc2cc(F)c3c(c2)C=CB(O)O3)nc1N[C@@H]1COCC[C@H]1C#N (single isomer, unassigned) [Example 036b, (trans)-3-((2-((8-fluoro-2-hydroxy-2H-benzo[e][1,2]oxaborinin-6-yl)amino)-5-methylpyrimidin-4-yl)amino)tetrahydro-2H-pyran-4-carbonitrile] | 8.2 nM | 102 nM |  | 37.3% |  |  |  |
| Cc1cnc(Nc2ccc3c(c2)C(C(C)C)=CB(O)O3)nc1N[C@H]1COCC[C@@H]1C#N (single isomer, unassigned) [Example 039b, (trans)-3-((2-((2-hydroxy-4-isopropyl-2H-benzo[e][1,2]oxaborinin-6-yl)amino)-5-methylpyrimidin-4-yl)amino)tetrahydro-2H-pyran-4-carbonitrile] | 216 nM | 2040 nM |  | 72.1% |  |  |  |
| Cc1cnc(Nc2cc(Cl)c3c(c2)C(C(C)C)=CB(O)O3)nc1N[C@H]1COCC[C@@H]1C#N (single isomer, unassigned) [Example 040a, (trans)-3-((2-((8-chloro-2-hydroxy-4-isopropyl-2H-benzo[e][1,2]oxaborinin-6-yl)amino)-5-methylpyrimidin-4-yl)amino)tetrahydro-2H-pyran-4-carbonitrile] | > 1000 nM | > 1000 nM |  | 32.9% |  |  |  |
| Cc1cc(Nc2ncc(Cl)c(N[C@H]3COCC[C@@H]3C#N)n2)cc2c1B(O)OC2 (single isomer, unassigned) [Example 041b, (trans)-3-[[5-chloro-2-[(1-hydroxy-7-methyl-3H-2,1-benzoxaborol-5-yl)amino]pyrimidin-4-yl]amino]tetrahydropyran-4-carbonitrile] |  |  |  | <19.9% |  | 36.2 nM | 134 nM |
| N#C[C@H]1CCOC[C@@H]1Nc1nc(Nc2cc3c(c(C(F)(F)F)c2)B(O)OC3)ncc1Cl (single isomer, unassigned) [Example 042b, (trans)-3-((5-chloro-2-((1-hydroxy-7-(trifluoromethyl)-1,3-dihydrobenzo[c][1,2]oxaborol-5-yl)amino)pyrimidin-4-yl)amino)tetrahydro-2H-pyran-4-carbonitrile] | 98.2 nM | 690 nM |  | <19.9% |  |  |  |
| Cc1cnc(Nc2cc3c(c(C(F)(F)F)c2)B(O)OC3)nc1N[C@H]1COC[C@@H]1C#N (single isomer, unassigned) [Example 043b, (trans)-4-[[2-[[1-hydroxy-7-(trifluoromethyl)-3H-2,1-benzoxaborol-5-yl]amino]-5-methyl-pyrimidin-4-yl]amino]tetrahydrofuran-3-carbonitrile] | 7.6 nM | 298 nM |  | <19.9% |  |  |  |
| COc1cc(Nc2ncc(C)c(N[C@H]3COCC[C@@H]3C#N)n2)cc2c1B(O)OC2 (single isomer, unassigned) [Example 044a, (trans)-3-((2-((1-hydroxy-7-methoxy-1,3-dihydrobenzo[c][1,2]oxaborol-5-yl)amino)-5-methylpyrimidin-4-yl)amino)tetrahydro-2H-pyran-4-carbonitrile] | 0.2 nM | 0.8 nM |  | 34.9% |  |  |  |
| COc1cc(Nc2ncc(C)c(N[C@H]3COCC[C@@H]3C#N)n2)cc2c1B(O)OC2 (single isomer, unassigned) [Example 044b, (trans)-3-((2-((1-hydroxy-7-methoxy-1,3-dihydrobenzo[c][1,2]oxaborol-5-yl)amino)-5-methylpyrimidin-4-yl)amino)tetrahydro-2H-pyran-4-carbonitrile] | 33.8 nM | 96.8 nM |  | <19.9% |  |  |  |
| Cc1cnc(Nc2cc(Cl)c3c(c2)COB3O)nc1N[C@@H]1CCCOC1 [Example 030a] | 51.1 nM | 868 nM |  | <19.9% |  |  |  |
| CC1=Cc2cc(Nc3ncc(C)c(NC4COCCC4C#N)n3)ccc2OB1O (stereo not drawn) [Example 038, 3-[[2-[(2-hydroxy-3-methyl-1,2-benzoxaborinin-6-yl)amino]-5-methyl-pyrimidin-4-yl]amino]tetrahydropyran-4-carbonitrile] | 1.4 nM | 23.7 nM |  | 50.4% |  |  |  |
